Data reported in US11974983B2 (Duke University, priority 2018, dated 2024).

Columns and labels:
[1] = system: wild-type ERα and ERα LBD mutants Y537S, Y537N, Y537C, D538G; experiment: ERE-luciferase reporter assay in Caov2 and SKBR3 cells (statements on all receptors); type: cell-based
Experimental: ExSite mutagenesis was performed using the corresponding primers as summarized in Table 1 below on a pENTR2B ERα WT construct using Pfu ultra taq polymerase. The primers were PNK phosphorylated. Following PCR amplification, the products were digested with DpnI at 37° C. for 1 hr, followed by overnight ligation at 16° C. Ligated products were transformed into DH5α bacterial cells and grown on kanamycin resistant plates. The pENTR clones were verified by sequencing and then swapped into the pcDNA-DEST vector using the Gateway system (Invitrogen) for expression analysis.
Caov2 ovarian carcinoma cells were grown in RPMI-1640 media (Gibco) supplemented with 8% Fetal Bovine Serum (FBS), Sodium Pyruvate (NaPyr) and non-essential amino acids (NEAA) and passaged every 2-3 days. SKBR3 breast adenocarcinoma cells were grown in DMEM media (Gibco) supplemented with 8% Fetal Bovine Serum (FBS), Sodium Pyruvate (NaPyr) and non-essential amino acids (NEAA) and passaged every 2-3 days. […]
Caov2 cells were co-transfected with the 7X-TK-ERE-TATA luciferase reporter gene (Nagel et al., Endocrinology 142(11): 4721-4728 (2001)) and expression constructs for either wild-type or mutant receptors using Fugene transfection reagent (Promega). […] Following 24 hours of treatment, cells were lysed and the luciferase and β-gal assays were performed as described previously (Norris et al., J Biol Chem 270(39): 22777-22782 (1995)) and the plates were read on the Fusion α-FP HT plate reader (PerkinElmer Life Sciences).
See Jeselsohn et al., Nature Reviews Clinical Oncology 12(10): 573-583 (2015); Jeselsohn et al., Clinical Cancer Research 20(7): 1757-1767 (2014); Robinson et al., Nature Genetics 45(12): 1446-1451(2013); Thomas and Gustafsson, Trends in Endocrinology and Metabolism 26(9): 467-476 (2015); and Toy et al., Nature Genetics 45(12): 1439-1445 (2013). The activity of these mutants was evaluated in a reconstituted estrogen response element (ERE)-luciferase reporter assay in Caov2 ovarian carcinoma cells and SKBR3 breast adenocarcinoma cells. […]

MCF7 WT [2] = experiment: Mammary intraductal (MIND) xenograft model, MCF7 WT; type: in vivo, NSG mice; settings: MCF7 WT mice; fulvestrant 5 mg once per week subcutaneous
Experimental: (§1) MCF7 cells were engineered with CRISPR/Cas9 to express ERα with Y537S and D538G mutations. To mimic the natural environment of infiltrating ductal ERα^+ breast cancers, NSG™ mice were injected, via the nipple in the inguinal mammary glands, with three MCF7 cell variants: wild type MCF7 cells (MCF7 WT), MCF7 cells expressing Y537S mutant ERα (MCF7 Y537S), and MCF7 cells expressing D538G mutant ERα (MCF7 D538G), respectively. Prior to injection, the MCF7 cells were labeled with a luciferase reporter to monitor tumor growth in vivo using a Xenogen IVIS imager. […] FIG. 4 summarizes the experimental design.

MCF7 Y537S = experiment: Mammary intraductal (MIND) xenograft model, MCF7 Y537S; type: in vivo, NSG mice; settings: MCF7 Y537S; fulvestrant 5 mg once per week; after 70 days
Experimental: as §1

MCF7 WT [3] = experiment: MIND xenograft model, combination therapies, MCF7 WT; type: in vivo, mice
Text: MCF7 WT and MCF7 Y537S MIND xenograft model were generated as described in Example 3. […] FIG. 20 summarizes the experimental design.

## C[C@]12CC[C@@H]3c4ccc(O)cc4CC[C@H]3[C@@H]1CC[C@@H]2O [E2, 17-β estradiol]
[1]
  transcriptional activity, response to E2: not responsive to E2 activation

## C[C@]12CC[C@@H]3c4ccc(O)cc4C[C@@H](CCCCCCCCC[S+]([O-])CCCC(F)(F)C(F)(F)F)[C@H]3[C@@H]1CC[C@@H]2O (some centres unmarked) [fulvestrant]
MCF7 WT [2]
  tumor growth monitored by total flux: the most effective in inhibiting tumor growth
MCF7 Y537S
  lung metastasis: did not have a significant effect
MCF7 WT [3]; MCF7 WT mice, fulvestrant alone 5 mg/mouse once per week
  tumor growth monitored by total flux: the most effective in inhibiting tumor growth
MCF7 WT [3]; MCF7 WT, day 36 and day 43 of treatment
  tumor growth by tumor volume: the most effective
